Experimental data as given in US12378250B2, “Tricyclic compound as IRAK4 inhibitor” (KOREA RESEARCH INSTITUTE OF CHEMICAL TECHNOLOGY, priority 2018, dated 2025).

Assays:
[1] = test system: TNF-α in serum, LPS-induced systemic inflammatory disease; test: Suppressive effects on LPS-induced systemic inflammatory disease in mice (serum TNF-α); assay type: in vivo, C57BL/6 mice; conditions: doses of 50 and 100 mg/kg, oral, 2 hours prior to LPS 15 mg/kg i.p.
Protocol: As experimental animals, 8-week-old C57BL/6 (20 to 23 g) mice were supplied from Orient Bio Co., Ltd. (Seongnam, Gyeonggi-do) and used. The mice were acclimatized for 2 weeks or more in an animal room of the Korea Research Institute of Chemical Technology, where temperature (22±1° C.) and humidity (50±10%) were automatically adjusted, and then used for experiments, and allowed to freely ingest water and feed. This animal experiment was performed with the approval of the Animal Care and Use Committee of the Korea Research Institute of Chemical Technology. A systemic inflammatory disease was induced by administering a dose of 15 mg/kg lipopolysaccharide (LPS, Sigma L2880) intraperitoneally to the mice. A test drug was suspended in a 10% Cremophor solution and administered orally 2 hours prior to LPS injection, the mice were anesthetized with isoflurane 1 hour after LPS administration, and blood was collected from the heart. Serum was obtained by centrifuging the collected blood at 13,000 rpm for 15 minutes, store at −20° C., and then taken if needed to measure the content of cytokine (TNF-α) in serum using an ELISA kit manufactured by BD Biosciences. […]

[2] = test system: NF-κB promoter, THP1-Lucia™ NF-κB cell line; test: NF-κB promoter inhibition, THP1-Lucia NF-κB cell line; assay type: cell-based; conditions: 100 ng/ml LPS, 24 hours, read-out: NF-κB, % inhibition degree
Protocol: (§1) A THP1-Lucia™ NF-κB cell line (Invivogen) was used in an NF-κB inhibition experiment, and a THP1-Lucia™ ISG cell line was used in an ISG inhibition experiment. In the NF-κB inhibition experiment, cells were planted at a density of 1×10^4 cells/well in a 96-well plate, and in the ISG inhibition experiment, cells were planted at a density of 2×10^4 cells/well in a 96-well plate. The cells were treated with a compound diluted to 4-fold of a final concentration, and totally cultured for 30 minutes. NF-κB was treated with 100 ng/ml lipopolysaccharide (LPS), ISG was treated with a stimulator of 1 μg/ml Poly(dA:dT)/LyoVec, and NF-κB and ISG were cultured for 24 hours. 10 μl of a cell supernatant was taken and transferred to a 96-well plate. 50 μl of a Quanti-luc solution was aliquoted using an automatic aliquoter of a measurer (Envision Multilabel Plate Reader, Perkin Elmer, Inc.), and light emission signals were measured.

[3] = test system: IFN-α secretion, peripheral blood mononuclear cells (PBMCs); test: Suppression of IFN-α secretion in ODN2216-treated PBMCs (ELISA); assay type: cell-based; conditions: PBMC, 500 nM ODN2216, 72 hours, read-out: IFN-α, % inhibition degree
Protocol: (§2) Peripheral blood mononuclear cells (PBMCs) isolated from whole blood were distributed in a 96-well plate. TNF-α was aliquoted at a density of 1×10^5 cells/well, IFN-α was aliquoted at a density of 2×10^5 cells/well, and TNF-α and IFN-α were treated with a compound diluted to 4-fold of a final concentration and totally cultured for 30 minutes. TNF-α was treated with 100 ng/ml lipopolysaccharide (LPS), IFN-α was treated with 500 nM ODN2216 (CpGTLR9 stimulator), and TNF-α and IFN-α were further cultured for 24 hours and 72 hours, respectively. An enzyme-linked immunosorbent assay (ELISA) was performed on TNF-α and IFN-α using an ELISA kit manufactured by BD Biosciences and an ELISA kit manufactured by PBL Assay Science, Inc., respectively. A cell supernatant and a standard drug were put into the ELISA plates and reacted for 2 hours. The plates were washed and a measurement antibody and streptavidin-HRP were sequentially added thereto. After the plates were washed, a TMB substrate was added thereto and reacted in a dark place. The reaction was stopped by adding a stop solution thereto, and the absorbance at 450 nm and 570 nm was measured using an absorber (OPTIMax tunable microplate reader, molecular devices). The experimental results are shown in [Table 2].

[4] = test system: TNF-α secretion, peripheral blood mononuclear cells (PBMCs); test: Suppression of TNF-α secretion in LPS-treated PBMCs (ELISA); assay type: cell-based; conditions: PBMC, 100 ng/ml LPS, 24 hours, read-out: TNF-α, % inhibition degree
Protocol: as §2

IRAK4 enzyme = target: T1, IRAK4 enzyme (Homo sapiens, UniProt Q9NWZ3); test: IRAK4 enzyme inhibition degree (bead-based kinase assay, peptide substrate BMKC-2, 100 μM ATP); assay type: biochemical; conditions: for inhibition at 1 µM: compound 1 μM
T1 sequence (Q9NWZ3 1-460): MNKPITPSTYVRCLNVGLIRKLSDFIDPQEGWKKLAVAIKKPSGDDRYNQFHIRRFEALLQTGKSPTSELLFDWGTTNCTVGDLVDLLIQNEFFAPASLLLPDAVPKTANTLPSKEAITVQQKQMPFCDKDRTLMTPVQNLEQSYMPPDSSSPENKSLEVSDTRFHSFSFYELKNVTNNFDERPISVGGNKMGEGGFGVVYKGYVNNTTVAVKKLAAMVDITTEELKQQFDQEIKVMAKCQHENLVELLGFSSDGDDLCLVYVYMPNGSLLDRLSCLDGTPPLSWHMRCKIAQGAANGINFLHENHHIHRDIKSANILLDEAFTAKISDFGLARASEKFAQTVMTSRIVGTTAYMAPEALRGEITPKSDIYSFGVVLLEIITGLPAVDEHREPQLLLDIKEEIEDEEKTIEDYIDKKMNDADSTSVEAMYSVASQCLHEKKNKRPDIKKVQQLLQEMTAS
How it was run: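 IRAK4 (0.4 ng/μl stock) preincubated 10 min with compound, then 6 μM BMKC-2 peptide with 100 μM ATP (mix concentrations) for 60 min at room temperature; EDTA stop. Phospho-Thr antibody with AlphaScreen donor/acceptor beads detected product; % inhibition versus controls, IC50 by non-linear regression.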

[5] = test system: ISG promoter, THP1-Lucia™ ISG cell line; test: ISG promoter inhibition, THP1-Lucia ISG cell line; assay type: cell-based; conditions: 1 μg/ml Poly(dA:dT)/LyoVec, 24 hours, read-out: ISG, % inhibition degree
Protocol: as §1

Row | Compound | suppressive effect on systemic inflammation (serum TNF-α) compared to PF-06650833 [1] | inhibition at 0.1 µM [2] [%] | inhibition at 1 µM [2] [%] | inhibition at 0.1 µM [3] [%] | inhibition at 1 µM [3] [%] | inhibition at 0.1 µM [4] [%] | inhibition at 1 µM [4] [%] | inhibition at 1 µM (IRAK4 enzyme) [%] | inhibition at 0.1 µM [5] [%] | inhibition at 1 µM [5] [%] | IC50 (IRAK4 enzyme) [nM]
1 | COc1cncc(-c2ccc3[nH]c4ncnc(N[C@H]5CC[C@H](N6CCOCC6)CC5)c4c3c2)c1 [Compound 6aad, 6-(5-methoxypyridin-3-yl)-N-(trans-4-morpholinocyclohexyl)-9H-pyrimido[4,5-b]indole-4-amine] | better suppressive effect than PF-06650833 | 33 | 78 | 31 | 104 | 42 | 105 | 100 | 37 | 79 | 
2 | CCOC(=O)c1ccc2[nH]c3ncnc(N[C@H]4CC[C@H](N(C)C)CC4)c3c2c1 [Compound 5bb, ethyl 4-((trans-4-(dimethylamino)cyclohexyl)amino)-9H-pyrimido[4,5-b]indole-6-carboxylate] |  | 58 | 92 | 27.3 | 90 | 7.3 | 47 | 83 | 43 | 73 | 21
3 | COC(=O)c1ccc2c(c1)[nH]c1ncnc(N[C@H]3CC[C@H](N4CCOCC4)CC3)c12 [Compound 5da, methyl 4-((trans-4-morpholinocyclohexyl)amino)-9H-pyrimido[4,5-b]indole-7-carboxylate] |  | 5 | 30 | 10 | 40 | 10 | 40 | 99 | 1 | 20 | 128
